Experimental data reported in PMC6930524, “A Prospective Repurposing of Dantrolene as a Multitarget Agent for Alzheimer’s Disease” (Molecules, 2019).

How the values were obtained:
human MAO B (hMAO B) = molecular target: T1, human MAO B (hMAO B) (Homo sapiens, UniProt P27338); assay: biochemical
T1 construct: purchased Sigma-Aldrich Europe (Milan, Italy); host or cells: baculovirus infected insect cells (microsomes)
T1 sequence (P27338 1-520): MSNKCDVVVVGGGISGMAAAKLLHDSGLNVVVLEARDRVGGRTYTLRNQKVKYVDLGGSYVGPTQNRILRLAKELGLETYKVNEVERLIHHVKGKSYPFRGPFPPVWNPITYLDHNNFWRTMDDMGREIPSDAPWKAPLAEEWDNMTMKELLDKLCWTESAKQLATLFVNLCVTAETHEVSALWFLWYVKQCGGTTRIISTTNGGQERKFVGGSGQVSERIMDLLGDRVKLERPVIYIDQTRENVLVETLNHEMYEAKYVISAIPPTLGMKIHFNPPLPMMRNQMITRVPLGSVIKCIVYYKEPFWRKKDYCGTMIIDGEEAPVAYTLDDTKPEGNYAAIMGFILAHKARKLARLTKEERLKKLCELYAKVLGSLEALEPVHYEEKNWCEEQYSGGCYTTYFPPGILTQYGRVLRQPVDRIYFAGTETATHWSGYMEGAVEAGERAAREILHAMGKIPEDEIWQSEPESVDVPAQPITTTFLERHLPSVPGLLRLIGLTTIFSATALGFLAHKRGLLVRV
Description: Routine kynuramine fluorescence [29] and Ellman’s spectrophotometric [30, 31] assays were used for in vitro inhibition of human MAO B (hMAO B) and acetylcholinesterase (hAChE), respectively. Selectivity over the corresponding isoforms hMAO A and butyrylcholinesterase (hBChE) was also verified.
(§1) An already published protocol using human recombinant monoamine oxidases A (250 U/mg) and B (59 U/mg; microsomes from baculovirus infected insect cells) [29] was used by applying a 96-well plate technique (instrument Infinite M1000 Pro, Tecan, Cernusco s.N., Italy). Briefly, compounds at a concentration ranging from 30 to 0.01 μM were preincubated 20 min at 37 °C with substrate kynuramine, in phosphate buffer 8.0 made 0.39 osmolar with KCl. After addition of enzyme and further 30 min of incubation, NaOH was added and the fluorescence read at 310/400 excitation/emission wavelength. Experiments were performed in duplicates in black, flat-bottomed polystyrene 96-well microtiter plates (Greiner Bio-One GmbH, Frickenhausen, Germany). […] Inhibition values and kinetics were calculated by means of Prism (GraphPad Prism version 5.00 for Windows, GraphPad Software, San Diego, CA, USA).

[1] = molecular target: T2, human recombinant AChE (hAChE) (Homo sapiens, UniProt P22303); assay: biochemical; assay type: biochemical
T2 construct: purchased Sigma-Aldrich Europe (Milan, Italy)
Procedure: An already published method was used to apply the Ellman’s spectrophotometric assay to the 96-well plate technique. […] Experiments were performed in duplicate in transparent, flat-bottomed polystyrene 96-well microtiter plates, and readings made with Tecan Infinite M1000 Pro instrument.

[2] = molecular target: T3, Tau hexapeptide (306)VQIVYK(311) (PHF6) (Homo sapiens, UniProt P10636); assay: Inhibition of PHF6 self-aggregation (ThT fluorescence, TFE cosolvent); assay type: biochemical; details: inhibitor 25 μM, PHF6 50 μM
T3 construct: Tau hexapeptide (306)VQIVYK(311) (PHF6); purchased JPT Peptide Technologies GmbH, Berlin, Germany; host or cells: synthetic peptide
Description: As an additional proof of the potential of DAN in interfering with AD-related processes, we investigated the effects on the in vitro self-aggregation of beta amyloid peptide 1–40 (Aβ40) and Tau hexapeptide (306)VQIVYK(311) (PHF6). Aβ40 is used as an in vitro probe of the fibrillization process leading to amyloid fibrils and ultimately to senile plaques in AD [32], while PHF6 represents the highly proaggregating sequence of the repeated domain R3 of Tau protein, responsible of the formation of neurofibrillary tangles and other tauopathies in NDs. […]
Highly aggregating hexapeptide Ac-VQIVYK-NH2 (trifluoroacetate salt; JPT Peptide Technologies GmbH, Berlin, Germany) was used as mimic of tau fibrillization in vitro. […] Incubation samples were prepared in black low-binding, flat-bottomed polystyrene 96-well microtiter plates, containing PHF6 (final conc. 50 μM), inhibitor (25 μM) and ThT (10 μM) in a final volume of 180 μL, and immediately read with Tecan Infinite M1000 Pro instrument. Samples were set in triplicate and their fluorescence values subtracted of the blank. […] Fluorescence was measured at 440/485 excitation/emission wavelength within 2 h at 25 °C. Endpoint fluorescence values (arbitrary fluorescence units, AFU) were used for the calculation of residual aggregation as in Equation (1): % residual aggregation = 100 × AFUsample/AFUcontrol(1)

hMAO A = molecular target: T4, hMAO A (Homo sapiens, UniProt P21397); assay: biochemical
T4 sequence (P21397 1-527): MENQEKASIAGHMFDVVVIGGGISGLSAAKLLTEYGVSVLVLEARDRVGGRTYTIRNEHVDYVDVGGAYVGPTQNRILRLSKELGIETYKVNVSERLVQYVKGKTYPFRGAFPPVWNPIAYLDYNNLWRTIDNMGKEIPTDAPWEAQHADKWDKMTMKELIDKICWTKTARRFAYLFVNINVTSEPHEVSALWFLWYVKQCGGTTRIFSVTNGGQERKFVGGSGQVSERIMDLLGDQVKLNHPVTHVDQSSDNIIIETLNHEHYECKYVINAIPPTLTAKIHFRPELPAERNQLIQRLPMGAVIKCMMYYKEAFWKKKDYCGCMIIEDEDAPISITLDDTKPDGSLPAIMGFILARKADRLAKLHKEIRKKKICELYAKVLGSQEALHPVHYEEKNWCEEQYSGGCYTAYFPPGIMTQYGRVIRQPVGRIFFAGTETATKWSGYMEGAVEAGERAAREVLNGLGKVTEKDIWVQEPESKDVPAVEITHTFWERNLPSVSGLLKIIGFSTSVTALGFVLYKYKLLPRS
Procedure: Selectivity over the corresponding isoforms hMAO A and butyrylcholinesterase (hBChE) was also verified.
as §1

T2 sequence (P22303 32-614): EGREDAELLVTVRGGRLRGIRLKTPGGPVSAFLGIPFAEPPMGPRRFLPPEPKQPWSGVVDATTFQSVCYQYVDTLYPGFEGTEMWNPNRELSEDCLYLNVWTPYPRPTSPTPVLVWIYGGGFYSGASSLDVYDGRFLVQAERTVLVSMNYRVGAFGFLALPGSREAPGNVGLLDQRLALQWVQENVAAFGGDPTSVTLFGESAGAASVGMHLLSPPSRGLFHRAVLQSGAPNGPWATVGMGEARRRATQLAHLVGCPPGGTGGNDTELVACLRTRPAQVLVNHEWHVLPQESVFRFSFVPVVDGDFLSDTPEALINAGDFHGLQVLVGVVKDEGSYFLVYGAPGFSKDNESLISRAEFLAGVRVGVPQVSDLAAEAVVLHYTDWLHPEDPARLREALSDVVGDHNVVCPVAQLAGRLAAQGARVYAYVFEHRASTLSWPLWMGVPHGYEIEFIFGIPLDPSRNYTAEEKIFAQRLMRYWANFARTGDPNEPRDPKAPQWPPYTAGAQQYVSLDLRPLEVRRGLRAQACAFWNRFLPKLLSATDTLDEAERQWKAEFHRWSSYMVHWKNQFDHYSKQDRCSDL

**Q.** What does the source list for `O=C1CN(/N=C/c2ccc(-c3ccc([N+](=O)[O-])cc3)o2)C(O)=N1` [Dantrolene]?
**A.** IC50 (human MAO B (hMAO B)): 2.69 ± 0.44 µM; hMAO B inhibition mechanism (human MAO B (hMAO B); Michaelis–Menten / Lineweaver–Burk, substrate kynuramine): comp.; Ki (human MAO B (hMAO B); substrate kynuramine, mean ± SEM): 0.96 ± 0.09 µM; IC50 [1]: 4.19 ± 0.73 µM; hAChE inhibition mechanism ([1]; Michaelis–Menten / Lineweaver–Burk, substrate acetylthiocoline): noncomp.; potency of AChE inhibition relative to galantamine ([1]; fold lower than reference compound galantamine): seven-fold lower; Ki ([1]; substrate acetylthiocoline, mean ± SEM): 6.3 ± 0.15 µM; inhibition at 25 µM [2]: 32%; IC50 (hMAO A): 14 ± 1 µM
